We go through seven compounds from ChEMBL document CHEMBL1143001, “Designing active template molecules by combining computational de novo design and human chemist's expertise” (J Med Chem, 2007).

Calls of active or inactive are those of the source. No cut-off for these calls is given here.

In data set [1] the target is cGMP-specific 3',5'-cyclic phosphodiesterase (Homo sapiens) (UniProt O76074). The data set is described as follows: Inhibition of PDE5 in human platelet cells at 10 uM. Format: cell-based.
Data set [2] addresses Phosphodiesterase 4 (Homo sapiens) (UniProt P27815+Q08499+Q07343+Q08493). The data set is described as follows: Inhibition of PDE4 expressed in U937 cells at 10 uM. Format: cell-based. To be noted: U-937.
Data set [3] addresses T1, Amine oxidase [flavin-containing] B (Homo sapiens, UniProt P27338).
T1 sequence (P27338 whole entry): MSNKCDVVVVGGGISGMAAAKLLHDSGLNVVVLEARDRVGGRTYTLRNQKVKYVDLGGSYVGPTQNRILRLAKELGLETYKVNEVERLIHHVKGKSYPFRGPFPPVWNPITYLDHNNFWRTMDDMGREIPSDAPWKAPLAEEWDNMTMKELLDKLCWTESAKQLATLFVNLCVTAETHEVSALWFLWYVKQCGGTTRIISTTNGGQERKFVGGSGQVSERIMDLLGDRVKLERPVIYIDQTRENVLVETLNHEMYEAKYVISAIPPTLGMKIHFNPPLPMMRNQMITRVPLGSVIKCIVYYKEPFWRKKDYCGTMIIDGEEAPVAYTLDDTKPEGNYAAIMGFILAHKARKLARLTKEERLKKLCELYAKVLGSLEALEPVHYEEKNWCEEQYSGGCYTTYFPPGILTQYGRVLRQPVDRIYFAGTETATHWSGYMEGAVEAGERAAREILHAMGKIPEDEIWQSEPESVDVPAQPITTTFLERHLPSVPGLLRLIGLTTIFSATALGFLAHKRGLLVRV
The experiment in a line: Inhibition of MAOB in human platelets at 10 uM.

The species named for the next data set is Canis lupus familiaris. The experiment in a line: Inhibition of dog kidney (Na+/K+) ATPase at 10 uM.
For data set [4], the species on record is Rattus norvegicus. The data set is described as follows: Inhibition of rat brain adenylyl cyclase at 10 uM.
Data set [5] deals with T2, Phenylethanolamine N-methyltransferase (Bos taurus) (UniProt P10938).
T2 sequence (whole entry): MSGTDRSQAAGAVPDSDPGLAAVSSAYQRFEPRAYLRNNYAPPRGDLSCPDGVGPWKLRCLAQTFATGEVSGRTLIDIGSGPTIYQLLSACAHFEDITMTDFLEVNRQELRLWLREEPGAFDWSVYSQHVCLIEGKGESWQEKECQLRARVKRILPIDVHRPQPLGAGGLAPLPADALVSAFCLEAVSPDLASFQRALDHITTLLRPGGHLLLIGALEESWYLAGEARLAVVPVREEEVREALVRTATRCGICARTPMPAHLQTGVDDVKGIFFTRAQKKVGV
The experiment in a line: Inhibition of bovine adrenal medulla phenylethanolamine-N-methyl transferase at 10 uM. Format: tissue-based.

For data set [6], the target named is Acetylcholinesterase (Homo sapiens) (UniProt P22303). The data set is described as follows: Inhibition of human recombinant AChE expressed in HEK293 cells at 10 uM. Format: cell-based.
Acetylcholinesterase (Homo sapiens), sequence (P22303 whole entry): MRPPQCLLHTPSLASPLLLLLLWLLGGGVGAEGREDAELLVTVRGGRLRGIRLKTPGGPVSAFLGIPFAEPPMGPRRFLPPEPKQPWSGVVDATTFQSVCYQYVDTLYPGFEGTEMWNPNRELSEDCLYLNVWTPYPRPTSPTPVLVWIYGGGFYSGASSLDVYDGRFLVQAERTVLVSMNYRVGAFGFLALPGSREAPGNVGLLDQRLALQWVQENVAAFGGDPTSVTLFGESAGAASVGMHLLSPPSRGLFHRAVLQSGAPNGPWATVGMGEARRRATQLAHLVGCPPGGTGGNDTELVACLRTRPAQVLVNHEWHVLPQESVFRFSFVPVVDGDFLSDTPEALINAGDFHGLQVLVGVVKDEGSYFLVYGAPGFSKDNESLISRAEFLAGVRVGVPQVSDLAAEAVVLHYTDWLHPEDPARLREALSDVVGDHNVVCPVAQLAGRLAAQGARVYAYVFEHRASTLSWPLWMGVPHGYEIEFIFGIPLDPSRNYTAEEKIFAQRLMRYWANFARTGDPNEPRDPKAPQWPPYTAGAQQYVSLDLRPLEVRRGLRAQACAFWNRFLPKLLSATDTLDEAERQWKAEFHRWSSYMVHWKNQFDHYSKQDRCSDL
Data set [7] addresses Adrenergic receptor alpha-1 (Rattus norvegicus) (UniProt P15823+P23944+P43140). The experiment in a line: Displacement of radiolabeled prazosin from adrenergic alpha1 receptor in rat cerebral cortex. To be noted: concentration not given here. Format: tissue-based.
The target in data set [8] is Phosphodiesterase 3 (Homo sapiens) (UniProt Q14432+Q13370). The data set is described as follows: Inhibition of PDE3 expressed in human platelets at 10 uM.
For data set [9], the target named is Serotonin (5-HT) receptor (Rattus norvegicus) (UniProt P35563+P35365+P32305+P31388+Q9JJ16+P28564+P30994+Q62758+P08909+P14842+P30940+P35364+P19327+P28565). The experiment in a line: Displacement of radiolabeled serotonin from 5-HT receptor in rat cerebral cortex. Format: tissue-based. To be noted: concentration not given here.
The target in data set [10] is 4-aminobutyrate aminotransferase, mitochondrial (Rattus norvegicus) (UniProt P50554). The experiment in a line: Inhibition of rat brain GABA transaminase at 10 uM.
4-aminobutyrate aminotransferase, mitochondrial (Rattus norvegicus), sequence (P50554 28-500 limits assumed): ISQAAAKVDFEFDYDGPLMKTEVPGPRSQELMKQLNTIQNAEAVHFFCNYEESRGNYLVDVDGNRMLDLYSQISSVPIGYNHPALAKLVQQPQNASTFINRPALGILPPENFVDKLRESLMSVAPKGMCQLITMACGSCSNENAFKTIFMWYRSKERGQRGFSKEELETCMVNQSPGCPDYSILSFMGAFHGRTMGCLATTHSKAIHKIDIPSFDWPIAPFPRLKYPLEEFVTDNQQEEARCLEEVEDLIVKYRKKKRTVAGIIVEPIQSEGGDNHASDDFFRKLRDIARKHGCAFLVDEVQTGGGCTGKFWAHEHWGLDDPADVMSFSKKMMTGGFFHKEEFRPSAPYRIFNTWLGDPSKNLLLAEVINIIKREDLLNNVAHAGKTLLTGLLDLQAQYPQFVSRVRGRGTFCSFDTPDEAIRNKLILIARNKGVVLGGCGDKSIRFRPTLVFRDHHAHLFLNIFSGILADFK
For another data set, the species on record is Homo sapiens. The experiment in a line: Displacement of radiolabeled ligand from nicotinic acetylcholine receptor at 10 uM.
For data set [11], the species on record is Bos taurus. The experiment in a line: Inhibition of bovine PDE1 at 10 uM.
The species named for data set [12] is Rattus norvegicus. The data set is described as follows: Inhibition of rat striatum tyrosine hydroxylase at 10 uM. Format: tissue-based.
The test system of data set [13] is Protein kinase C (Rattus norvegicus). The experiment in a line: Inhibition of rat brain PKC at 10 uM.
For data set [14], the target named is Adrenergic receptor alpha-2 (Rattus norvegicus) (UniProt P22086+P19328+P22909). The data set is described as follows: Displacement of radiolabeled yohimbine from adrenergic alpha-2 receptor in rat cerebral cortex. Format: tissue-based. To be noted: concentration not given here.
The species named for data set [15] is Bos taurus. The experiment in a line: Inhibition of bovine lung guanylyl cyclase at 10 uM.
For data set [16], the species on record is Rattus norvegicus. The data set is described as follows: Displacement of radiolabeled naloxone from opiate receptor in rat cerebral cortex. Format: tissue-based. To be noted: concentration not given here.
Data set [17] deals with cGMP-dependent 3',5'-cyclic phosphodiesterase (Homo sapiens) (UniProt O00408). The experiment in a line: Inhibition of PDE2 expressed in differentiated U937 cells at 10 uM. Format: cell-based. To be noted: U-937.
cGMP-dependent 3',5'-cyclic phosphodiesterase (Homo sapiens), sequence (O00408 whole entry): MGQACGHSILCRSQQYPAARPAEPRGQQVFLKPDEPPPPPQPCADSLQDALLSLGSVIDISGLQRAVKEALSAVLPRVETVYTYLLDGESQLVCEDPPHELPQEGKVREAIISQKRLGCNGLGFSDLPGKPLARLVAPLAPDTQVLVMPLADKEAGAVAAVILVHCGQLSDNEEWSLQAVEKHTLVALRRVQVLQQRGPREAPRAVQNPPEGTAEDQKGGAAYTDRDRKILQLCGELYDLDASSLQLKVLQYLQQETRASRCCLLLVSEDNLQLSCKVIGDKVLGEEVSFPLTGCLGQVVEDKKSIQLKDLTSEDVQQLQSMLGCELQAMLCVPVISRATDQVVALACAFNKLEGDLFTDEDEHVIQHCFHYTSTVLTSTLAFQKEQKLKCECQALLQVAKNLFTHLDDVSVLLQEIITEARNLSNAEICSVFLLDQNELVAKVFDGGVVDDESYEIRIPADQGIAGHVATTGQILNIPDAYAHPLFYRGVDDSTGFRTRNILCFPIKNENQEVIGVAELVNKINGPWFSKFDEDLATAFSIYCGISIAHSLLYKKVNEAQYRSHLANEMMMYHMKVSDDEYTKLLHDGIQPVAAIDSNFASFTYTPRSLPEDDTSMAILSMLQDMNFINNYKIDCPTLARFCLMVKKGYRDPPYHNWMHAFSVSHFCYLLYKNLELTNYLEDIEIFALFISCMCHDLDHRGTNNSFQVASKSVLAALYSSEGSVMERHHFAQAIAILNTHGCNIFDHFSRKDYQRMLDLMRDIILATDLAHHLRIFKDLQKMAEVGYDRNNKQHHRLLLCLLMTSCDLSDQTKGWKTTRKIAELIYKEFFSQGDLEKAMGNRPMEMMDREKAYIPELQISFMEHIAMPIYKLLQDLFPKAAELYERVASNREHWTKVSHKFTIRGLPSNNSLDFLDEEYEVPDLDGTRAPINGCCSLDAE
The species entered for a further data set is Sus scrofa. The data set is described as follows: Inhibition of pig liver catechol-O-methyl transferase at 10 uM.
The target of data set [18] is Muscarinic acetylcholine receptor M1 (Rattus norvegicus) (UniProt P08482). The experiment in a line: Displacement of radiolabeled atropine from rat brain muscarinic M1 receptor at 10 uM.
Muscarinic acetylcholine receptor M1 (Rattus norvegicus), sequence (P08482 whole entry): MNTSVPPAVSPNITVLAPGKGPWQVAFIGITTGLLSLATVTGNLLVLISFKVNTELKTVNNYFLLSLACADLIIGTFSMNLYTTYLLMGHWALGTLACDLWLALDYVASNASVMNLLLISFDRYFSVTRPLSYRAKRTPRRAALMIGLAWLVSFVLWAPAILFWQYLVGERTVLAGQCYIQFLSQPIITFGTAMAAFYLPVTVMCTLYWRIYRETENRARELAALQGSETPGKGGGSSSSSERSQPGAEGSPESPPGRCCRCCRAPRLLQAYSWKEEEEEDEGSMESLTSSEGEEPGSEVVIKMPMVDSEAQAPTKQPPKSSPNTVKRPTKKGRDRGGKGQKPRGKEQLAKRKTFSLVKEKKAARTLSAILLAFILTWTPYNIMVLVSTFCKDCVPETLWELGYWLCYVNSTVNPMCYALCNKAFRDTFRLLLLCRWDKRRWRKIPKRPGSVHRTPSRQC
For data set [19], the target named is Muscarinic acetylcholine receptor M5 (Rattus norvegicus) (UniProt P08911). The experiment in a line: Displacement of radiolabeled atropine from rat brain muscarinic M5 receptor at 10 uM.
Muscarinic acetylcholine receptor M5 (Rattus norvegicus), sequence (P08911 whole entry): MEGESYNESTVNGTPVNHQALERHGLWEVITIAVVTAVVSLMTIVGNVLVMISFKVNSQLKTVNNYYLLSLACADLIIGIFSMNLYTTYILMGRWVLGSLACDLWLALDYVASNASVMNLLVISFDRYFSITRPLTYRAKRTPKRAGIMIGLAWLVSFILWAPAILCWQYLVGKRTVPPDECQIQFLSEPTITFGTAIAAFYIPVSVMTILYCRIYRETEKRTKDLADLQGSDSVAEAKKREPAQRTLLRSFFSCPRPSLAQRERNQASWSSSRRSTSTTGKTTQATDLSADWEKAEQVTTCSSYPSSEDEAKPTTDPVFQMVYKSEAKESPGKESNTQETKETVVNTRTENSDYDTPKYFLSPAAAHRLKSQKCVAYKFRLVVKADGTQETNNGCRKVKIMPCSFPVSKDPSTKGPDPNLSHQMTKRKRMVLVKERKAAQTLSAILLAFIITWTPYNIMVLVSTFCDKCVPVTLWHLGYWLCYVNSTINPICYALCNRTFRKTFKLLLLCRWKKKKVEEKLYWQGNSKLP
For data set [20], the target named is Muscarinic acetylcholine receptor M3 (Rattus norvegicus) (UniProt P08483). The data set is described as follows: Displacement of radiolabeled atropine from rat brain muscarinic M3 receptor at 10 uM.
Muscarinic acetylcholine receptor M3 (Rattus norvegicus), sequence (P08483 whole entry, looked up): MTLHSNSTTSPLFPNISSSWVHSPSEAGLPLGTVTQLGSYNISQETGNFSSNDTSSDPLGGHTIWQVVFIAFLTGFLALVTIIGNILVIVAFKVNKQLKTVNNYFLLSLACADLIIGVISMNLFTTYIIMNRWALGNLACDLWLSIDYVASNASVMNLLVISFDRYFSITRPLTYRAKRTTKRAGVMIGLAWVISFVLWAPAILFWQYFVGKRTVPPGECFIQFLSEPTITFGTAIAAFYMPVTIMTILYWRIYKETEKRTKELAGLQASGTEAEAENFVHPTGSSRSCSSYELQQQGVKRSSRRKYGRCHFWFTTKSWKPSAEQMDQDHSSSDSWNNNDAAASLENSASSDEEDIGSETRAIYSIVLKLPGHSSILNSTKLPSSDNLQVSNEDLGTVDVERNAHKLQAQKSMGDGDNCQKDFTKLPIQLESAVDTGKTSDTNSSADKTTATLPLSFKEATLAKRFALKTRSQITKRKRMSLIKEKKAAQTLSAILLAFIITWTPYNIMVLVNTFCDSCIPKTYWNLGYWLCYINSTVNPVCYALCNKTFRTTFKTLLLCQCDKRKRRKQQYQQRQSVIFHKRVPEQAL
Data set [21] has as its target Muscarinic acetylcholine receptor M4 (Rattus norvegicus) (UniProt P08485). The experiment in a line: Displacement of radiolabeled atropine from rat brain muscarinic M4 receptor at 10 uM.
Data set [22] has as its target Muscarinic acetylcholine receptor M2 (Rattus norvegicus) (UniProt P10980). The data set is described as follows: Displacement of radiolabeled atropine from rat brain muscarinic M2 receptor at 10 uM.
In data set [23] the target is Sodium-dependent noradrenaline transporter (Homo sapiens) (UniProt P23975). The data set is described as follows: Displacement of radiolabeled protriptyline from human recombinant NET expressed in CHO cells at 10 uM. Format: cell-based.
Sodium-dependent noradrenaline transporter (Homo sapiens), sequence (P23975 whole entry): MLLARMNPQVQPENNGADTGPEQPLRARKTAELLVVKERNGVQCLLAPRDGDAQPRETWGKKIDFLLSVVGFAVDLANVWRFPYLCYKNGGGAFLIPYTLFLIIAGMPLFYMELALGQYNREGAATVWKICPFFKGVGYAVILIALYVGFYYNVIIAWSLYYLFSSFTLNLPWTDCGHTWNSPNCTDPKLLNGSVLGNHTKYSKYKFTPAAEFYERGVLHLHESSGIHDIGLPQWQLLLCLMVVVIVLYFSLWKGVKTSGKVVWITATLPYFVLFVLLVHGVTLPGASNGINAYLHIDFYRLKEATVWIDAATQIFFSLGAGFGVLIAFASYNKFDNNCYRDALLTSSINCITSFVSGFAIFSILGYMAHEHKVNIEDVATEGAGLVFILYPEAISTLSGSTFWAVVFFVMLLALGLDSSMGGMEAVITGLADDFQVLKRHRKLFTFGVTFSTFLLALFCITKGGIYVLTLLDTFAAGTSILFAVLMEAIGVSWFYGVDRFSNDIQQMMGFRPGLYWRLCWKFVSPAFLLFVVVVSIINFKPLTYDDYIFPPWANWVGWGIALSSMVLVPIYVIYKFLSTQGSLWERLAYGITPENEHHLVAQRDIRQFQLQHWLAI

Muscarinic acetylcholine receptor M4 (Rattus norvegicus), sequence (P08485 whole entry): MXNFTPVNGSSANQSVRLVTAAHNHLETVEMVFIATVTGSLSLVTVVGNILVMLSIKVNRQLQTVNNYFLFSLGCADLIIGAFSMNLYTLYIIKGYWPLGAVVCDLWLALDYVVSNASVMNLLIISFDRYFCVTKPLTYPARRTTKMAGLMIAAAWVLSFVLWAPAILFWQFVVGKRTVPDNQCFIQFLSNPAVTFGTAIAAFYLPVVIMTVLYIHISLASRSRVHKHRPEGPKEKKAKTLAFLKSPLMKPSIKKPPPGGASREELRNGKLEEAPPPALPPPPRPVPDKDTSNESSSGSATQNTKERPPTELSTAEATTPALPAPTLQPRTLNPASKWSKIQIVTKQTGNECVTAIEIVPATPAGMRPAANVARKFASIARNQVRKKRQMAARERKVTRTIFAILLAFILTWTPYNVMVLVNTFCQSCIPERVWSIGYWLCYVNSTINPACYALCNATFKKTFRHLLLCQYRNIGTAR

In general, inhibition refers to how much of the control response was suppressed. `OCc1ccccc1C1CCCNC1` (stereo not drawn): the outcome (in [1]; in data set [2]; in the data set filed under Canis lupus familiaris; in the data set listed under Rattus norvegicus [4]; in data set [5]; in [6]) was inactive. For the same compound, the result (in data set [8]; in data set [10]; in the data set filed under Bos taurus [11]; in the data set listed under Rattus norvegicus [12]; in data set [13]; in the data set listed under Bos taurus [15]) was inactive. Also, the result (in data set [17]; in the data set filed under Sus scrofa) was inactive. Further, the Activity entry in data set [3] is given as “Not Active”. Besides, the inhibition is 47% in data set [7]; 39% in data set [9]; 45% in the data set listed under Homo sapiens; 62% in [14]; 35% in the data set filed under Rattus norvegicus [16].
Regarding `N#Cc1cccc(CC2CCCNC2=O)c1` (stereo not drawn), the result (in [1]; in data set [2]; in the data set listed under Canis lupus familiaris; in the data set listed under Rattus norvegicus [4]; in [5]; in data set [6]) was inactive. Further, the result (in data set [8]; in data set [10]; in the data set filed under Bos taurus [11]; in the data set filed under Rattus norvegicus [12]; in data set [13]; in the data set listed under Bos taurus [15]) was inactive. Also, the result (in data set [17]; in the data set listed under Sus scrofa) was inactive. In addition, in [3], the Activity result was “Not Active”.
As to `NCc1cccc(CC2CCCNC2=O)c1` (stereo not drawn), the result (in data set [1]; in data set [2]; in the data set filed under Canis lupus familiaris; in the data set listed under Rattus norvegicus [4]; in [5]; in data set [6]) was inactive. For the same compound, the outcome (in data set [8]; in [10]; in the data set listed under Bos taurus [11]; in the data set listed under Rattus norvegicus [12]; in data set [13]; in the data set listed under Bos taurus [15]) was inactive. In addition, the result (in data set [17]; in the data set filed under Sus scrofa) was inactive. Also, the inhibition in data set [18], in [19], in data set [20], in data set [21] and in data set [22] was 50% each time. Moreover, the Activity entry in [3] was “Not Active”.
As to `O=C(O)CCC(=O)Nc1ccc(-c2ccoc2)cc1`, the result (in data set [1]; in [2]; in the data set listed under Canis lupus familiaris; in the data set filed under Rattus norvegicus [4]; in data set [5]; in data set [6]) was inactive. The result (in data set [8]; in [10]; in the data set filed under Bos taurus [11]; in the data set filed under Rattus norvegicus [12]; in data set [13]; in the data set listed under Bos taurus [15]) was inactive. For the same compound, the result (in [17]; in the data set listed under Sus scrofa) was inactive. In addition, the Activity entry in [3] is “Not Active”.
Consider `N#Cc1cccc(CN2CCCCC2=O)c1`, for which the outcome (in data set [1]; in data set [2]; in the data set listed under Canis lupus familiaris; in the data set filed under Rattus norvegicus [4]; in data set [5]; in data set [6]) was inactive. In addition, the outcome (in data set [8]; in data set [10]; in the data set filed under Bos taurus [11]; in the data set listed under Rattus norvegicus [12]; in data set [13]; in the data set filed under Bos taurus [15]) was inactive. The result (in [17]; in the data set filed under Sus scrofa) was inactive. Moreover, in [3], the Activity entry was “Not Active”.
`Nc1cccc(-c2ccoc2)c1`: the result (in data set [1]; in data set [2]; in the data set listed under Canis lupus familiaris; in the data set listed under Rattus norvegicus [4]; in [5]; in [6]) was inactive. In addition, the outcome (in data set [8]; in data set [10]; in the data set listed under Bos taurus [11]; in the data set filed under Rattus norvegicus [12]; in data set [13]; in the data set listed under Bos taurus [15]) was inactive. For the same compound, the outcome (in data set [17]; in the data set listed under Sus scrofa) was inactive. In addition, in data set [3], the Activity result is reported as “Not Active”. Also, the inhibition in the data set filed under Homo sapiens was 42%; in data set [23], 80%.
For `Nc1ccc(-c2ccoc2)cc1`, the outcome (in [1]; in data set [2]; in the data set filed under Canis lupus familiaris; in the data set listed under Rattus norvegicus [4]; in [5]; in data set [6]) was inactive. Besides, the result (in data set [8]; in [10]; in the data set filed under Bos taurus [11]; in the data set filed under Rattus norvegicus [12]; in data set [13]; in the data set listed under Bos taurus [15]) was inactive. The outcome (in [17]; in the data set listed under Sus scrofa) was inactive. The Activity entry in data set [3] was “Not Active”. In addition, the inhibition in data set [23] amounted to 77%.
